In one test the test system is HCV replicon cells. Put plainly: HCV replicon FRET assay. The test is classed as cell-based. On the procedure:
FRET Assay Preparation. The HCV FRET screening assay was performed in 96-well cell culture plates. The FRET peptide (Anaspec, Inc.) (Taliani et al., Anal. Biochem. 1996, 240, 60-67) contains a fluorescence donor, EDANS, near one end of the peptide and an acceptor, DABCYL, near the other end. The fluorescence of the peptide is quenched by […] resonance energy transfer (RET) between the donor and the acceptor, but as the NS3 protease cleaves the peptide the products are released from RET quenching and the fluorescence of the donor becomes apparent. The assay reagent was made as follows: 5× cell Luciferase cell culture lysis reagent from Promega (#E153A) diluted to 1× with dH2O, NaCl added to 150 mM final, the FRET peptide diluted to 20 μM final from a 2 mM stock.
To prepare plates, HCV replicon cells, with or without a Renilla luciferase reporter gene, were trypsinized and plated in a 96-well plate with titrated test compounds added in columns 3 through 12; columns 1 and 2 contained a control compound (HCV control inhibitor), and the bottom row contained cells with DMSO only. The plates were then placed in a CO2 incubator at 37° C.
Assays. Subsequent to addition of the test compounds described above (FRET Assay Preparation), at various times the plate was removed and Alamar blue solution (Trek Diagnostics, #00-100) was added to measure cellular toxicity. After reading in a Cytoflour 4000 instrument (PE Biosystems), plates were rinsed with PBS and then used for FRET assay by the addition of 30 ul of the FRET peptide assay reagent described above (FRET Assay Preparation) per well. The plate was then placed into the Cytoflour 4000 instrument which had been set to 340 excite/490 emission, automatic mode for up to 20 cycles and the plate read in a kinetic mode. Typically, the signal to noise using an endpoint analysis after the reads was at least three-fold. Alternatively, after Alamar blue reading, plates were rinsed with PBS, then used for luciferase assay using the Promega Dual-Glo Luciferase Assay System or the Promega EnduRen Live Cell Substrate assay.
Compound analysis was performed by quantification of the relative HCV replicon inhibition and the relative cytotoxicity values. To calculate cytoxicity values, the average Alamar Blue fluorescence signals from the control wells were set as 100% non-toxic. The individual signals in each of the compound test wells were then divided by the average control signal and multiplied by 100% to determine […]. To calculate the HCV replicon inhibition values, an average background value was obtained from the two wells containing the highest amount of HCV control inhibitor at the end of the assay period. These numbers were similar to those obtained from naïve Huh-7 cells. The background numbers were then subtracted from the average signal obtained from the control wells and this number was used as 100% activity. The individual signals in each of the compound test wells were then divided by the averaged control values after background subtraction and multiplied by 100% to determine percent activity. EC50 values were calculated as the concentration which caused a 50% reduction in FRET or luciferase activity. The two numbers generated for the compound plate, percent cytoxicity and percent activity, were used to determine compounds of interest for further analysis.
(In general: In antiviral work, replicon cells carry a viral genome segment that copies itself.)

The next test has as its target T1, HCV NS5B (Hepatitis C virus genotype 1b, UniProt Q9WMX2).
T1 construct: The protein was expressed with an 18 amino acid C-terminal truncation to enhance the solubility; made in house; host or cells: E. coli BL21(DE3)
The test can be described thus: Modified HCV NS5B RdRp enzyme assay (preincubation protocol). The test is classed as biochemical. On the procedure:
HCV NS5B RdRp cloning, expression, and purification. The cDNA encoding the NS5B protein of HCV, genotype 1b, was cloned into the pET21a expression vector. The protein was expressed with an 18 amino acid C-terminal truncation to enhance the solubility. The E. coli competent cell line BL21(DE3) was used for expression of the protein. Cultures were grown at 37° C. for ˜4 hours until the cultures reached an optical density of 2.0 at 600 nm. The cultures were cooled to 20° C. and induced with 1 mM IPTG. Fresh ampicillin was added to a final concentration of 50 μg/ml and the cells were grown overnight at 20° C.
Cell pellets (3 L) were lysed for purification to yield 15-24 mgs of purified NS5B. The lysis buffer consisted of 20 mM Tris-HCl, pH 7.4, 500 mM NaCl, 0.5% triton X-100, 1 mM DTT, 1 mM EDTA, 20% glycerol, 0.5 mg/ml lysozyme, 10 mM MgCl2, 15 ug/ml deoxyribonuclease I, and Complete TM protease inhibitor tablets (Roche). After addition of the lysis buffer, frozen cell pellets were resuspended using a tissue homogenizer. To reduce the viscosity of the sample, aliquots of the lysate were sonicated on ice using a microtip attached to a Branson sonicator. The sonicated lysate was centrifuged at 100,000×g for 1 hr at 4° C. and filtered through a 0.2 μm filter unit (Corning).
The protein was purified using two sequential chromatography steps: Heparin sepharose CL-6B and polyU sepharose 4B (Pharmacia). The chromatography buffers were identical to the lysis buffer but contained no lysozyme, deoxyribonuclease I, MgCl2 or protease inhibitor and the NaCl concentration of the buffer was adjusted according to the requirements for charging the protein onto the column. Each column was eluted with a NaCl gradient which varied in length from 5-50 column volumes depending on the column type. After the final chromatography step, the resulting purity of the enzyme is >90% based on SDS-PAGE analysis. The enzyme was aliquoted and stored at −80° C.
Standard HCV NS5B RdRp enzyme assay. HCV RdRp genotype 1b assays were run in a final volume of 60 μl in 96 well plates (Corning 3600). The assay buffer is composed of 20 mM Hepes, pH 7.5, 2.5 mM KCl, 2.5 mM MgCl2, 1 mM DTT, 1.6 U RNAse inhibitor (Promega N2515), 0.01 mg/ml BSA (Sigma B6917), and 2% glycerol. All compounds were serially diluted (3-fold) in DMSO and diluted further in water such that the final concentration of DMSO in the assay was 2%. HCV RdRp genotype 1b enzyme was used at a final concentration of 28 nM. A polyA template was used at 6 nM, and a biotinylated oligo-dT12 primer was used at 180 nM final concentration. Template was obtained commercially (Amersham 27-4110). Biotinylated primer was prepared by Sigma Genosys. 3H-UTP was used at 0.6 μCi (0.29 μM total UTP). Reactions were initiated by the addition of enzyme, incubated at 30° C. for 60 min, and stopped by adding 25 μl of 50 mM EDTA containing SPA beads (4 μg/μl, Amersham RPNQ 0007). Plates were read on a Packard Top Count NXT after >1 hr incubation at room temperature.
Modified HCV NS5B RdRp enzyme assay. A modified enzyme assay was performed essentially as described for the standard enzyme assay except for the following: The biotinylated oligo dT12 primer was precaptured on streptavidin-coated SPA beads by mixing primer and beads in assay buffer and incubating at room temperature for one hour. Unbound primer was removed after centrifugation. The primer-bound beads were resuspended in 20 mM Hepes buffer, pH 7.5 and used in the assay at final concentrations of 20 nM primer and 0.67 μg/μl beads. Order of addition in the assay: enzyme (1.75 nM) was added to diluted compound followed by the addition of a mixture of template (0.36 nM), 3H-UTP (0.6 μCi, 0.29 μM), and primer-bound beads, to initiate the reaction; concentrations given are final. Reactions were allowed to proceed for 4 hours at 30° C.
IC50 values for compounds were determined using seven different [I]. […]

Like-named read-outs stand apart in the source and are kept apart here.

In general, EC50 refers to the concentration giving half of the maximal effect. As a reminder, the IC50 is the point on the concentration scale where inhibition reaches its midpoint. Low values mean greater potency in that assay, high ones weaker potency in that assay.

T1 sequence (Q9WMX2 2420-2992): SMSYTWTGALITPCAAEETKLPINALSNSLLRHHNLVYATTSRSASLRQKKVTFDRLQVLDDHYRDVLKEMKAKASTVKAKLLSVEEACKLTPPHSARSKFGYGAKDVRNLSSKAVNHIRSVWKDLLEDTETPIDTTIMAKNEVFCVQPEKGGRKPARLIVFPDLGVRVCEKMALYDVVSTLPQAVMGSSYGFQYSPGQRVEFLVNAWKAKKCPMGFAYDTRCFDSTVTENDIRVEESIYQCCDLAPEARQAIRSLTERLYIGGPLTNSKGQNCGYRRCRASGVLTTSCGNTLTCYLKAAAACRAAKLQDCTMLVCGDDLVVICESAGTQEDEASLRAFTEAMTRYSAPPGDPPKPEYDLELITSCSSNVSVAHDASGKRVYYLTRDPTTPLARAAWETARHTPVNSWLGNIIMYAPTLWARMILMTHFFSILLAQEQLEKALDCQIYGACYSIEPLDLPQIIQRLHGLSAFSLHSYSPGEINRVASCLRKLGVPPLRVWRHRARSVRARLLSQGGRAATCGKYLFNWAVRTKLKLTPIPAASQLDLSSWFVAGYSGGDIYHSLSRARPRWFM

On to `COc1ccc2c(c1)C1CC1(C(=O)N1CCC3(CCNC3)C1)Cn1c-2c(C2CCCCC2)c2ccc(C(=O)NS(=O)(=O)C(C)C)cc21` (stereo not shown), for which the EC50 in the test with HCV replicon cells (Hepatitis C virus) fell in the range of 4.58 to 500 nM. On HCV NS5B, the IC50 fell in the range of 4.58 to 500 nM.
In turn, `COc1ccc2c(c1)C1CC1(C(=O)N1CCCC3(CCN(C)C3=O)C1)Cn1c-2c(C2CCCCC2)c2ccc(C(=O)NS(=O)(=O)C3CC3)cc21` (stereo not shown) showed an EC50 in the test with HCV replicon cells (Hepatitis C virus) of 4.58 to 500 nM. The molecule also yielded an IC50 at HCV NS5B of 4.58 to 500 nM.
In the case of `COc1ccc2c(c1)C1CC1(C(=O)N1CCCC3(CCN(C)C3=O)C1)Cn1c-2c(C2CCCCC2)c2ccc(C(=O)NS(=O)(=O)C(C)C)cc21` (stereo not shown) [drawing 21], the EC50 in the test on HCV replicon cells (Hepatitis C virus) was 4.58 to 500 nM. This molecule also had an IC50 against HCV NS5B of 4.58 to 500 nM.
`COc1ccc2c(c1)C1CC1(C(=O)N1CCCC3(CCN(C)C3=O)C1)Cn1c-2c(C2CCCCC2)c2ccc(C(=O)NS(=O)(=O)C(C)C)cc21` (stereo not shown) [drawing 22] registered an EC50 in the test with HCV replicon cells of 4.58 to 500 nM. At HCV NS5B, this molecule displayed an IC50 of 4.58 to 500 nM.
Molecule `COc1ccc2c(c1)C1CC1(C(=O)N1CCCC3(CCN(C)C3)C1)Cn1c-2c(C2CCCCC2)c2ccc(C(=O)NS(=O)(=O)C(C)C)cc21` (stereo not shown) [drawing 23] displayed an EC50 in the test with HCV replicon cells (Hepatitis C virus) of 4.58 to 500 nM. At HCV NS5B, this molecule yielded an IC50 of 4.58 to 500 nM.
In the test on HCV replicon cells, `COc1ccc2c(c1)C1CC1(C(=O)N1CCCC3(CCN(C)C3)C1)Cn1c-2c(C2CCCCC2)c2ccc(C(=O)NS(=O)(=O)C(C)C)cc21` (stereo not shown) [drawing 24] displayed an EC50 of 4.58 to 500 nM. The IC50 against HCV NS5B lay within 4.58 to 500 nM.
In the test with HCV replicon cells (Hepatitis C virus), `CCCS(=O)(=O)NC(=O)c1ccc2c(C3CCCCC3)c3n(c2c1)CC1(C(=O)N2CCCC4(CCN(C)C4)C2)CC1c1cc(OC)ccc1-3` (stereo not shown) [drawing 25] returned an EC50 of 4.58 to 500 nM. Moreover, the IC50 at HCV NS5B lay in the range of 4.58 to 500 nM.
`CCCS(=O)(=O)NC(=O)c1ccc2c(C3CCCCC3)c3n(c2c1)CC1(C(=O)N2CCCC4(CCN(C)C4)C2)CC1c1cc(OC)ccc1-3` (stereo not shown) [drawing 26] returned an EC50 in the test with HCV replicon cells of 4.58 to 500 nM. At HCV NS5B, this molecule yielded an IC50 of 4.58 to 500 nM.
